target: T1, ALK (baculovirus expressed human ALK kinase domain F1098-K1410) (Homo sapiens, UniProt Q9UM73); assay: biochemical; conditions: 1 μM ATP, 4 μM poly-AEKY, 12 nM ALK, 2 hours at ambient temperature; read-out: ALK IC50
T1 construct: human ALK kinase domain F1098-K1410; made in house
Procedure, shortened: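 Inhibitors were tested at 10 concentrations, and IC50 was derived from a sigmoidal fit (Min, Max, Hill slope). Kinase activity was measured as percent ATP left after a 2 h reaction at room temperature, detected by luciferase-luciferin chemiluminescence. The ATP level was set close to KM for the ALK kinase domain F1098-K1410.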

T1 sequence (Q9UM73 1098-1410): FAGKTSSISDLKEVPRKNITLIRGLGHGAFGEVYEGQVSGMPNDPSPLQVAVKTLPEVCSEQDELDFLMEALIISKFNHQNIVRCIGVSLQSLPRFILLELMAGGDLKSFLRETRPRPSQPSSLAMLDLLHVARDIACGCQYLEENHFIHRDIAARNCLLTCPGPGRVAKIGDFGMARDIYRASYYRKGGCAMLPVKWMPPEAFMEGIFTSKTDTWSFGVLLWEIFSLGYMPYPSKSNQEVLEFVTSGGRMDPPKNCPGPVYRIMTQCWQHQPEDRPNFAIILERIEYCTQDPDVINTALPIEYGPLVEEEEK

IC50 [nM]	SMILES
50 to 500	O=C(NCc1nc(C(=O)NCCc2cccc(Cl)c2)cs1)N[C@@H]1C[C@H]1c1ccccc1 [Entry 217, N-[2-(3-chlorophenyl)ethyl]-2-{[({[(1R,2S)-2-phenylcyclopropyl]amino}carbonyl)amino]methyl}-1,3-thiazole-4-carboxamide]
50 to 500	O=C(COc1ccc(OC(F)(F)F)cc1)NCc1nc(C(=O)N[C@@H]2CCC[C@H]2OCc2ccccc2)cs1 [Entry 218, N-{(1R,2R)-2-[(phenylmethyl)oxy]cyclopentyl}-2-({[({4-[(trifluoromethyl)oxy]phenyl}oxy)acetyl]amino}methyl)-1,3-thiazole-4-carboxamide]
500 to 2000	O=C(COc1ccc(OC(F)(F)F)cc1)NCc1nc(C(=O)NCCc2ccncc2)co1 [Entry 219, N-(2-pyridin-4-ylethyl)-2-({[({4-[(trifluoromethyl)oxy]phenyl}oxy)acetyl]amino}methyl)-1,3-oxazole-4-carboxamide]
500 to 2000	CCCCCCC(C)NC(=O)c1csc(CNC(=O)COc2ccc(OC(F)(F)F)cc2)n1 (centres unmarked) [Entry 220, N-(1-methylheptyl)-2-({[({4-[(trifluoromethyl)oxy]phenyl}oxy)acetyl]amino}methyl)-1,3-thiazole-4-carboxamide]
500 to 2000	CSCC[C@H](NC(=O)c1ccccc1)C(=O)NCc1nc(C(=O)NCCc2cccc(Cl)c2)cs1 [Entry 221, N-{[4-({[2-(3-chlorophenyl)ethyl]amino}carbonyl)-1,3-thiazol-2-yl]methyl}-N~2~-(phenylcarbonyl)methioninamide]
500 to 2000	O=C(COc1ccc(OC(F)(F)F)cc1)NCc1nc(C(=O)NC(Cc2ccccc2)c2ccccc2)cs1 (centres unmarked) [Entry 222, N-(1,2-diphenylethyl)-2-({[({4-[(trifluoromethyl)oxy]phenyl}oxy)acetyl]amino}methyl)-1,3-thiazole-4-carboxamide]
500 to 2000	COc1cccc(CNC(=O)c2coc(CNC(=O)COc3ccc(OC(F)(F)F)cc3)n2)c1OC [Entry 223, N-{[2,3-bis(methyloxy)phenyl]methyl}-2-({[({4-[(trifluoromethyl)oxy]phenyl}oxy)acetyl]amino}methyl)-1,3-oxazole-4-carboxamide]
500 to 2000	COc1ccc(CCNC(=O)c2coc(CNC(=O)COc3ccc(OC(F)(F)F)cc3)n2)cc1 [Entry 224, N-{2-[4-(methyloxy)phenyl]ethyl}-2-({[({4-[(trifluoromethyl)oxy]phenyl}oxy)acetyl]amino}methyl)-1,3-oxazole-4-carboxamide]
500 to 2000	Cc1ccc(CCNC(=O)c2coc(CNC(=O)COc3ccc(OC(F)(F)F)cc3)n2)cc1 [Entry 225, N-[2-(4-methylphenyl)ethyl]-2-({[({4-[(trifluoromethyl)oxy]phenyl}oxy)acetyl]amino}methyl)-1,3-oxazole-4-carboxamide]
500 to 2000	O=C(COc1ccc(OC(F)(F)F)cc1)NCc1nc(C(=O)NCC(c2ccccc2)c2ccccc2)co1 [Entry 226, N-(2,2-diphenylethyl)-2-({[({4-[(trifluoromethyl)oxy]phenyl}oxy)acetyl]amino}methyl)-1,3-oxazole-4-carboxamide]
500 to 2000	O=C(COc1ccc(OC(F)(F)F)cc1)NCc1nc(C(=O)NCc2ccc(Cl)cc2)cs1 [Entry 227, N-[(4-chlorophenyl)methyl]-2-({[({4-[(trifluoromethyl)oxy]phenyl}oxy)acetyl]amino}methyl)-1,3-thiazole-4-carboxamide]
500 to 2000	O=C(COc1ccc(OC(F)(F)F)cc1)NCc1nc(C(=O)NC2CCCC2)cs1 [Entry 228, N-cyclopentyl-2-({[({4-[(trifluoromethyl)oxy]phenyl}oxy)acetyl]amino}methyl)-1,3-thiazole-4-carboxamide]
500 to 2000	COc1ccccc1CNC(=O)c1csc(CNC(=O)Cc2ccc3ccccc3c2)n1 [Entry 229, N-{[2-(methyloxy)phenyl]methyl}-2-{[(naphthalen-2-ylacetyl)amino]methyl}-1,3-thiazole-4-carboxamide]
500 to 2000	CCOc1cccc(CCNC(=O)c2coc(CNC(=O)COc3ccc(OC(F)(F)F)cc3)n2)c1 [Entry 230, N-{2-[3-(ethyloxy)phenyl]ethyl}-2-({[({4-[(trifluoromethyl)oxy]phenyl}oxy)acetyl]amino}methyl)-1,3-oxazole-4-carboxamide]
500 to 2000	O=C(COc1ccc(OC(F)(F)F)cc1)NCc1nc(C(=O)NCCc2ccc(Br)cc2)co1 [Entry 231, N-[2-(4-bromophenyl)ethyl]-2-({[({4-[(trifluoromethyl)oxy]phenyl}oxy)acetyl]amino}methyl)-1,3-oxazole-4-carboxamide]
500 to 2000	CSc1ccc(CC(=O)NCc2nc(C(=O)NCCc3cccc(Cl)c3)cs2)cc1 [Entry 232, N-[2-(3-chlorophenyl)ethyl]-2-[({[4-(methylthio)phenyl]acetyl}amino)methyl]-1,3-thiazole-4-carboxamide]

IC50 [nM]	SMILES
500 to 2000	C[C@@H](NC(=O)c1csc(CNC(=O)COc2ccc(OC(F)(F)F)cc2)n1)C(C)(C)C [Entry 233, 2-({[({4-[(trifluoromethyl)oxy]phenyl}oxy)acetyl]amino}methyl)-N-[(1R)-1,2,2-trimethylpropyl]-1,3-thiazole-4-carboxamide]
500 to 2000	COc1cccc(CCNC(=O)c2coc(CNC(=O)COc3ccc(OC(F)(F)F)cc3)n2)c1 [Entry 234, N-{2-[3-(methyloxy)phenyl]ethyl}-2-({[({4-[(trifluoromethyl)oxy]phenyl}oxy)acetyl]amino}methyl)-1,3-oxazole-4-carboxamide]
500 to 2000	CCOc1ccccc1CNC(=O)c1coc(CNC(=O)COc2ccc(OC(F)(F)F)cc2)n1 [Entry 235, N-{[2-(ethyloxy)phenyl]methyl}-2-({[({4-[(trifluoromethyl)oxy]phenyl}oxy)acetyl]amino}methyl)-1,3-oxazole-4-carboxamide]
500 to 2000	O=C(NCCc1cccc(Cl)c1)c1csc(CNC(=O)C2(c3ccc(Cl)cc3)CC2)n1 [Entry 236, 2-[({[1-(4-chlorophenyl)cyclopropyl]carbonyl}amino)methyl]-N-[2-(3-chlorophenyl)ethyl]-1,3-thiazole-4-carboxamide]
500 to 2000	CN(C)c1ccc(CNC(=O)c2csc(CNC(=O)COc3ccc(OC(F)(F)F)cc3)n2)cc1 [Entry 237, N-{[4-(dimethylamino)phenyl]methyl}-2-({[({4-[(trifluoromethyl)oxy]phenyl}oxy)acetyl]amino}methyl)-1,3-thiazole-4-carboxamide]
500 to 2000	CCCCCCN(CCC#N)C(=O)c1csc(CNC(=O)COc2ccc(OC(F)(F)F)cc2)n1 [Entry 238, N-(2-cyanoethyl)-N-hexyl-2-({[({4-[(trifluoromethyl)oxy]phenyl}oxy)acetyl]amino}methyl)-1,3-thiazole-4-carboxamide]
500 to 2000	O=C(COc1ccc(Br)cc1)NCc1nc(C(=O)NCCc2ccccc2F)cs1 [Entry 239, 2-[({[(4-bromophenyl)oxy]acetyl}amino)methyl]-N-[2-(2-fluorophenyl)ethyl]-1,3-thiazole-4-carboxamide]
500 to 2000	C[C@H](CNC(=O)c1coc(CNC(=O)COc2ccc(OC(F)(F)F)cc2)n1)c1ccccc1 [Entry 240, N-[(2S)-2-phenylpropyl]-2-({[({4-[(trifluoromethyl)oxy]phenyl}oxy)acetyl]amino}methyl)-1,3-oxazole-4-carboxamide]
500 to 2000	O=C(COc1ccc(OC(F)(F)F)cc1)NCc1nc(C(=O)NCc2cccnc2)cs1 [Entry 241, N-(pyridin-3-ylmethyl)-2-({[({4-[(trifluoromethyl)oxy]phenyl}oxy)acetyl]amino}methyl)-1,3-thiazole-4-carboxamide]
500 to 2000	O=C(COc1ccc(OC(F)(F)F)cc1)NCc1nc(C(=O)NCCc2ccccc2)co1 [Entry 242, N-(2-phenylethyl)-2-({[({4-[(trifluoromethyl)oxy]phenyl}oxy)acetyl]amino}methyl)-1,3-oxazole-4-carboxamide]
500 to 2000	Cc1ccc(N2CCN(C(=O)c3csc(CNC(=O)COc4ccc(OC(F)(F)F)cc4)n3)CC2C)cc1 (centres unmarked) [Entry 243, N-[(4-{[3-methyl-4-(4-methylphenyl)piperazin-1-yl]carbonyl}-1,3-thiazol-2-yl)methyl]-2-({4-[(trifluoromethyl)oxy]phenyl}oxy)acetamide]
500 to 2000	O=C(COc1ccc(OC(F)(F)F)cc1)NCc1nc(C(=O)NCc2ccc(F)cc2C(F)(F)F)cs1 [Entry 244, N-{[4-fluoro-2-(trifluoromethyl)phenyl]methyl}-2-({[({4-[(trifluoromethyl)oxy]phenyl}oxy)acetyl]amino}methyl)-1,3-thiazole-4-carboxamide]
500 to 2000	CCCC1CCN(C(=O)c2csc(CNC(=O)COc3ccc(OC(F)(F)F)cc3)n2)CC1 [Entry 245, N-({4-[(4-propylpiperidin-1-yl)carbonyl]-1,3-thiazol-2-yl}methyl)-2-({4-[(trifluoromethyl)oxy]phenyl}oxy)acetamide]
500 to 2000	O=C(COc1ccc(OC(F)(F)F)cc1)NCc1nc(C(=O)NCCc2ccc(Cl)cc2)co1 [Entry 246, N-[2-(4-chlorophenyl)ethyl]-2-({[({4-[(trifluoromethyl)oxy]phenyl}oxy)acetyl]amino}methyl)-1,3-oxazole-4-carboxamide]
500 to 2000	CN1CCCC1CCNC(=O)c1csc(CNC(=O)COc2ccc(OC(F)(F)F)cc2)n1 (centres unmarked) [Entry 247, N-[2-(1-methylpyrrolidin-2-yl)ethyl]-2-({[({4-[(trifluoromethyl)oxy]phenyl}oxy)acetyl]amino}methyl)-1,3-thiazole-4-carboxamide]
500 to 2000	CCCCOc1ccc(NC(=O)NCc2nc(C(=O)NCc3cccc(OC)c3OC)cs2)cc1 [Entry 248, N-{[2,3-bis(methyloxy)phenyl]methyl}-2-{[({[4-(butyloxy)phenyl]amino}carbonyl)amino]methyl}-1,3-thiazole-4-carboxamide]
